Data: PubChem BioAssay AID248 (DTP/NCI, 2004)
Values joined by “and” are separate entries in the source; they are usually repeats but may differ in a detail not shown here. Equal entries are not always repeated. Inconclusive results and toxic doses are left out. No stated cut-off is given here; in the data, active means T/C of 150% or more; inactive means T/C below 125%.

Tested on: L1210 leukemia ip in BDF1 mice, survival T/C
Assay: NCI In Vivo Anticancer Drug Screen. Data for tumor model L1210 Leukemia (intraperitoneal) in B6D2F1 (BDF1) mice
Details: endpoint: mean survival time, higher = longer survival
How it was run: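 Mice bearing the transplanted tumor received compound or vehicle. Survival of the treated group was divided by that of the vehicle-treated control group to give the ratio.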

[1] = dose: 25.0 mg/kg/injection, schedule: Q01DX009 (ip), vehicle: saline
[2] = dose: 100.0 mg/kg/injection, schedule: Q01DX009 (ip), vehicle: saline
[3] = dose: 100.0 mg/kg/injection, schedule: Q01DX009 (ip), vehicle: saline with Tween-80
[4] = dose: 400.0 mg/kg/injection, schedule: Q01DX009 (ip), vehicle: saline with Tween-80
[5] = dose: 25.0 mg/kg/injection, schedule: Q01DX009 (ip), vehicle: Klucel (hydroxypropylcellulose) (HPC)
[6] = dose: 50.0 mg/kg/injection, schedule: Q01DX009 (ip), vehicle: Klucel (hydroxypropylcellulose) (HPC)
[7] = dose: 100.0 mg/kg/injection, schedule: Q01DX009 (ip), vehicle: Klucel (hydroxypropylcellulose) (HPC)
[8] = dose: 100.0 mg/kg/injection, schedule: Q04DX002 (ip), vehicle: Klucel (hydroxypropylcellulose) (HPC)
[9] = dose: 200.0 mg/kg/injection, schedule: Q04DX002 (ip), vehicle: Klucel (hydroxypropylcellulose) (HPC)
[10] = dose: 400.0 mg/kg/injection, schedule: Q04DX002 (ip), vehicle: Klucel (hydroxypropylcellulose) (HPC)
[11] = dose: 100.0 mg/kg/injection, schedule: Q04DX002 (ip), vehicle: saline with Tween-80
[12] = dose: 100.0 mg/kg/injection, schedule: Q01DX001 (ip), vehicle: saline
[13] = dose: 200.0 mg/kg/injection, schedule: Q01DX009 (ip), vehicle: saline with Tween-80
[14] = dose: 50.0 mg/kg/injection, schedule: Q01DX001 (ip), vehicle: saline
[15] = dose: 200.0 mg/kg/injection, schedule: Q01DX001 (ip), vehicle: saline
[16] = dose: 400.0 mg/kg/injection, schedule: Q01DX001 (ip), vehicle: saline
[17] = dose: 100.0 mg/kg/injection, schedule: Q04DX003 (ip), vehicle: Klucel (hydroxypropylcellulose) (HPC)
[18] = dose: 200.0 mg/kg/injection, schedule: Q04DX003 (ip), vehicle: Klucel (hydroxypropylcellulose) (HPC)

Measured: T/C

CC(C)=CCNc1ncnc2c(C3OC(CO)C(O)C3O)[nH]nc12 (centres undefined)
inactive: dose: 100.0 mg/kg/injection, schedule: Q01DX005 (ip), vehicle: saline 95 % of control | dose: 200.0 mg/kg/injection, schedule: Q01DX005 (ip), vehicle: saline 95 % of control

Nc1ccc([As](=O)(O)O)cc1
inactive: [1] 102 % of control | dose: 50.0 mg/kg/injection, schedule: Q01DX009 (ip), vehicle: saline 102 % of control | [2] 94 % of control and 104 % of control | dose: 100.0 mg/kg/injection, schedule: Q04DX002 (ip), vehicle: saline 91 % of control | dose: 200.0 mg/kg/injection, schedule: Q04DX002 (ip), vehicle: saline 102 % of control | dose: 400.0 mg/kg/injection, schedule: Q04DX002 (ip), vehicle: saline 87 % of control

O=C(Nc1ccccc1)Nc1cc(C(F)(F)F)ccc1Cl
inactive: [3] 86 % of control | dose: 100.0 mg/kg/injection, schedule: Q04DX003 (ip), vehicle: saline with Tween-80 91 % of control | dose: 200.0 mg/kg/injection, schedule: Q04DX003 (ip), vehicle: saline with Tween-80 90 % of control | [4] 92 % of control | dose: 400.0 mg/kg/injection, schedule: Q04DX003 (ip), vehicle: saline with Tween-80 95 % of control

COC(=O)c1ccc(C(=O)CC(=O)c2ccccc2)cc1.COC(=O)c1ccc(C(=O)CC(=O)c2ccccc2)cc1.COC(=O)c1ccc(C(=O)CC(=O)c2ccccc2)cc1.COC(=O)c1ccc(C(=O)CC(=O)c2ccccc2)cc1.COC(=O)c1ccc(C(=O)CC(=O)c2ccccc2)cc1.[Th]
inactive: dose: 25.0 mg/kg/injection, schedule: Q01DX005 (ip), vehicle: Klucel (hydroxypropylcellulose) (HPC) 89 % of control | [5] 100 % of control | dose: 50.0 mg/kg/injection, schedule: Q01DX005 (ip), vehicle: Klucel (hydroxypropylcellulose) (HPC) 93 % of control | [6] 100 % of control | dose: 100.0 mg/kg/injection, schedule: Q01DX005 (ip), vehicle: Klucel (hydroxypropylcellulose) (HPC) 93 % of control and 89 % of control | [7] 93 % of control | [8] 96 % of control | [9] 100 % of control | [10] 93 % of control

COc1ccc2c(c1)C1CCCCC1SCC2=O (centres undefined)
inactive: dose: 100.0 mg/kg/injection, schedule: Q01DX001 (ip), vehicle: other 100 % of control | dose: 200.0 mg/kg/injection, schedule: Q01DX001 (ip), vehicle: other 96 % of control | dose: 400.0 mg/kg/injection, schedule: Q01DX001 (ip), vehicle: other 96 % of control

CCOC(=O)COCC(=O)OCC
inactive: [11] 98 % of control | dose: 200.0 mg/kg/injection, schedule: Q04DX002 (ip), vehicle: saline with Tween-80 98 % of control | dose: 400.0 mg/kg/injection, schedule: Q04DX002 (ip), vehicle: saline with Tween-80 102 % of control

Cc1csc[n+]1Cc1ccc([N+](=O)[O-])cc1
inactive: dose: 5.0 mg/kg/injection, schedule: Q01DX001 (ip), vehicle: saline 100 % of control | dose: 10.0 mg/kg/injection, schedule: Q01DX001 (ip), vehicle: saline 102 % of control | dose: 20.0 mg/kg/injection, schedule: Q01DX001 (ip), vehicle: saline 102 % of control | dose: 40.0 mg/kg/injection, schedule: Q01DX001 (ip), vehicle: saline 103 % of control | dose: 80.0 mg/kg/injection, schedule: Q01DX001 (ip), vehicle: saline 100 % of control | [12] 98 % of control

CCCCCCCCCCCC(=O)N/N=C(\C)c1cccc2ccccc12
inactive: [5] 92 % of control | [6] 96 % of control | [7] 88 % of control and 92 % of control

CCOC(=O)c1cnc(SCc2ccccc2)[nH]c1=O
inactive: [3] 101 % of control | [13] 91 % of control | [4] 92 % of control

CCCCCOc1ccc(C(=O)/C(Br)=C/C(=O)O)cc1
inactive: dose: 12.5 mg/kg/injection, schedule: Q01DX009 (ip), vehicle: saline with Tween-80 98 % of control | dose: 25.0 mg/kg/injection, schedule: Q01DX009 (ip), vehicle: saline with Tween-80 96 % of control | dose: 50.0 mg/kg/injection, schedule: Q01DX009 (ip), vehicle: saline with Tween-80 101 % of control

CCn1c(C)cc(O)cc1=O
inactive: [3] 94 % of control | [13] 92 % of control | [4] 94 % of control

Cc1ccc(S(=O)(=O)NC(=O)N2CCCC2)cc1
inactive: [14] 109 % of control | [12] 97 % of control | [15] 94 % of control | [16] 88 % of control

NC(=S)N/N=C/c1ccc(C2CCNCC2)cc1
inactive: dose: 15.0 mg/kg/injection, schedule: Q01DX Z (ip), vehicle: methylcellulose (MC) 102 % of control | dose: 30.0 mg/kg/injection, schedule: Q01DX Z (ip), vehicle: methylcellulose (MC) 92 % of control | dose: 60.0 mg/kg/injection, schedule: Q01DX Z (ip), vehicle: methylcellulose (MC) 104 % of control | dose: 120.0 mg/kg/injection, schedule: Q01DX Z (ip), vehicle: methylcellulose (MC) 104 % of control

Cc1cccc(Nc2cc(=O)[nH]c(=O)[nH]2)c1C
inactive: dose: 150.0 mg/kg/injection, schedule: Q01DX001 (ip), vehicle: saline with Tween-80 90 % of control | dose: 300.0 mg/kg/injection, schedule: Q01DX001 (ip), vehicle: saline with Tween-80 95 % of control

CC(O)CCc1ccc(OC(=O)c2ccccc2)cc1 (centres undefined)
inactive: [14] 101 % of control | [12] 92 % of control | [15] 101 % of control | [16] 92 % of control

CC(Oc1cc(Cl)ccc1Cl)C(=O)O (centres undefined)
inactive: dose: 50.0 mg/kg/injection, schedule: Q04DX003 (ip), vehicle: Klucel (hydroxypropylcellulose) (HPC) 114 % of control | [7] 110 % of control | [17] 105 % of control | dose: 200.0 mg/kg/injection, schedule: Q01DX009 (ip), vehicle: Klucel (hydroxypropylcellulose) (HPC) 114 % of control | [18] 104 % of control | dose: 400.0 mg/kg/injection, schedule: Q01DX009 (ip), vehicle: Klucel (hydroxypropylcellulose) (HPC) 108 % of control

CC(C#N)(Nc1ccccc1)c1ccc(Br)cc1 (centres undefined)
inactive: [17] 95 % of control | [18] 95 % of control | dose: 400.0 mg/kg/injection, schedule: Q04DX003 (ip), vehicle: Klucel (hydroxypropylcellulose) (HPC) 95 % of control

CCNC(C)(C)C(SSSC(c1ccc(C(F)(F)F)cc1)C(C)(C)NCC)c1ccc(C(F)(F)F)cc1 (centres undefined)
inactive: dose: 6.25 mg/kg/injection, schedule: Q01DX009 (ip), vehicle: saline 91 % of control | dose: 12.5 mg/kg/injection, schedule: Q01DX009 (ip), vehicle: saline 96 % of control | [1] 95 % of control

Cc1ccc2c(c1)NP(=O)(c1ccccc1)S2 (centres undefined)
inactive: dose: 25.0 mg/kg/injection, schedule: Q04DX002 (ip), vehicle: saline with Tween-80 89 % of control | dose: 50.0 mg/kg/injection, schedule: Q04DX002 (ip), vehicle: saline with Tween-80 92 % of control | [11] 102 % of control and 89 % of control

CCOC(=O)c1nc(N2CCOCC2)c2ccccc2n1
inactive: [8] 104 % of control | [9] 101 % of control | [10] 95 % of control

O=C(O)C(CO)c1ccc(F)cc1 (centres undefined)
inactive: dose: 100.0 mg/kg/injection, schedule: Q01DX001 (ip), vehicle: carboxymethylcellulose (CMC) 108 % of control | dose: 200.0 mg/kg/injection, schedule: Q01DX001 (ip), vehicle: carboxymethylcellulose (CMC) 106 % of control | dose: 400.0 mg/kg/injection, schedule: Q01DX001 (ip), vehicle: carboxymethylcellulose (CMC) 108 % of control

COc1ccc2c[n+](C)c3c4cc(OC)c(OC)cc4ccc3c2c1
inactive: dose: 6.25 mg/kg/injection, schedule: Q04DX003 (ip), vehicle: saline with Tween-80 105 % of control | dose: 12.5 mg/kg/injection, schedule: Q04DX003 (ip), vehicle: saline with Tween-80 105 % of control | dose: 25.0 mg/kg/injection, schedule: Q04DX003 (ip), vehicle: saline with Tween-80 105 % of control

Clc1nc(Cl)c(Nc2ccn[nH]2)nc1Cl
inactive: [3] 91 % of control | [13] 86 % of control | [4] 94 % of control

O=C1NC(=O)C(O)(O)C(=O)N1
inactive: [2] 104 % of control | dose: 200.0 mg/kg/injection, schedule: Q01DX009 (ip), vehicle: saline 93 % of control
